One assay concerns the target T1, wtNRAS/RAF1 (Homo sapiens, UniProt P01111).
T1 construct: (1-169); His6-SUMO (N, cleaved yes); made in house; host or cells: E. coli (printed for the KRAS and RAF1 constructs; not explicitly for NRAS)
As to the kind of experiment: Protein-protein interaction (PPI) HTRF assay w.t.NRAS/RAF1. Type of assay: binding. The protocol: (§1) Biotinylated KRAS wt and KRAS G12DNV proteins were expressed and purified in conditions similar to those previously reported (Tran, et al., 2021) (Zhang, et al., 2020). Briefly, KRAS (1-169) proteins were expressed in E. coli at 18° C. with an upstream TEV cleavage site (ENLFYQS) followed an Avi tag sequence ([…]). KIRAS expression constructs contained both a His6 and maltose-binding protein (MBP) tags at the N-terminus for Ni-NTA column purification prior to overnight TEV cleavage and MBP column purification. The avi-tagged NRAS expression construct contained both a His6 tag and SUMO cleavage sige at the N-terminus for Ni-NTA column purification followed by His-ULP1 digestion overnight. All avi-tagged RAS proteins were dialyzed into buffer containing ATP, biotin, and BirA followed by purification over a second Ni-NTA column and then run over a size exclusion HiLoad™ 26/600 Superdex™ column in 20 mM HEPES, pH 7.5, 300 mM NaCl, 5 mM MgCl2, and 1 mM TCEP. Fractions containing the protein of interest were pooled, concentrated, and confirmed by intact mass spectrometry. To prepare ‘GTP’ loaded KRAS and NRAS, biotinylated KRAS or NRAS was nucleotide exchanged from GDP-bound protein to GppNHp-bound (Jena Biosciences, NU-401-50) protein in the presence of alkaline phosphatase and excess GppNHp as previously described and the resulting nucleotide content was confirmed by HPLC reverse phase analytical chromatography (Donohue, et al., 2019) (Tran, et al., 2021).
(§2) His-tagged RAF1 (52-131) was similarly expressed in E. coli at 18° C. overnight with an upstream TEV cleavage site. His-tagged RAF1 expression construct contained both a His6 and MBP tags at the N-terminus for Ni-NTA column purification followed by MBP-tagged TEV digestion overnight. RAF1 protein samples were further purified over a MBP column followed by a Ni-NTA column and a second MBP column. The fractions containing the protein of interest were pooled, concentrated, and further purified over a HiLoad™ 16/600 Superdex™ 75 pg size exclusion column into 20 mM HEPES, pH8.0, 200 mM NaCl, 5 mM TCEP.
(§3) When RAS proteins are in the active GTP-bound conformation, they bind the effector protein RAF1 at the N-terminus Ras-binding domain (RBD, residues 52-131) (Tran, et al., 2021). Homogenous time resolved fluorescence (HTRF) was used to monitor the interaction between wt or mutant KRAS and RAF1 or wt NRAS and RAFT. Compounds were assayed in the presence of KRAS G12D/V and RAF1 versus wt KRAS to assess activity against mutant and w.t. KRAS. Similarly, compounds were then assayed in the presence of w.t. NRAS and RAF1 to assess RAS isoform selectivity. In all assay formats, His-tagged RAF1 protein was incubated with the HTRF donor, anti-6His Tb Cryptate gold (Cisbio 61DB10RDF), and biotinylated RAS proteins were incubated with the HTRF acceptor, streptavidin-d2 (CisBio 610SADLA). The intensity of the fluorescence signal emitted is proportional to binding between the two proteins. The donor solution was prepared by mixing 16 nM His-tagged RAF1 in protein dilution buffer with 1:100 anti-6His Tb cryptate in PPI-Terbium detection buffer. 16 nM biotinylated RAS protein was diluted into protein dilution buffer (50 mM Tris-HCl pH 7.5, 150 mM NaCl, 0.1 mM MgCl2, 1 mM TCEP, 0.005% Tween20) and mixed with 1:2000 Streptavidin-d2 diluted in PPI-Terbium detection buffer (CisBio 61DB10RDF). 50× compound in DMSO was mixed with 16 nM KRAS-acceptor solution and incubated for 30 minutes at room temperature. After compound pre-incubation with KRAS, the RAF1 donor solution was added to the KRAS-acceptor solution and incubated for 1 hour at room temperature. The fluorescence signal emitted was monitored at 665 nm and 615 nm using an Envision multimode plate reader. The HTRF ratio (665/615) was calculated and normalized to 0% inhibition in the absence of compound and 100% inhibition in the presence of untagged RAF1 protein. […]

Another assay deals with T2, KRAS G12V/RAF1 (Homo sapiens, UniProt P01116, G12V).
T2 construct: KRAS (1-169) proteins were expressed in E. coli at 18° C; His6-MBP (N, cleaved yes); made in house; host or cells: E. coli
T2 sequence (P01116 1-169 isoform P01116-2 G12V): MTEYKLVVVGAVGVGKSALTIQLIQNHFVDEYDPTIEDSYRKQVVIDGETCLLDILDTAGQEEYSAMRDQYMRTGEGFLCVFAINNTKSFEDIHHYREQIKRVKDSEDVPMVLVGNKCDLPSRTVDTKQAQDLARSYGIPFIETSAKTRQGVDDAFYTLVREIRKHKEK
Briefly: Protein-protein interaction (PPI) HTRF assay KRAS G12V/RAF1. Conditions: KRASG12V/RAF1. Type of assay: binding. As to the method: as §1, §2, §3
On the technique in general: TR-FRET usually uses a lanthanide donor and a delayed reading to cut background.

The target in the next assay is T3, KRAS G12D/RAF1 (Homo sapiens, UniProt P01116, G12D).
T3 construct: KRAS (1-169) proteins were expressed in E. coli at 18° C; His6-MBP (N, cleaved yes); made in house; host or cells: E. coli
T3 sequence (P01116 1-169 isoform P01116-2 G12D): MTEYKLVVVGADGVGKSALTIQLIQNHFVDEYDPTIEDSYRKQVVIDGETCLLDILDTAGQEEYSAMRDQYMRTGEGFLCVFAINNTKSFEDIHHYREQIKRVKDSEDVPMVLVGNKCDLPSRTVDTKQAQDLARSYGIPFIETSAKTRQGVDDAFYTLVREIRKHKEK
Briefly: Protein-protein interaction (PPI) HTRF assay KRAS G12D/RAF1. Type of assay: binding. As to conditions: KRAS G12D/RAF1, GppNHp-loaded KRAS; 30 minutes pre-incubation. Put shortly: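 IC50 values come from the 665/615 HTRF ratio, scaled between no-compound (0% inhibition) and untagged RAF1 (100%). GppNHp-exchanged, biotinylated RAS (1-169) solution at 16 nM met compound for 30 min at room temperature. Then 16 nM His-tagged RAF1 (52-131) donor solution was added and incubated 1 h.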

Another assay concerns the target T4, wtKRAS/RAF1 (Homo sapiens, UniProt P01116).
T4 construct: KRAS (1-169) proteins were expressed in E. coli at 18° C; His6-MBP (N, cleaved yes); made in house; host or cells: E. coli
As to the kind of experiment: Protein-protein interaction (PPI) HTRF assay w.t.KRAS/RAF1. Type of assay: binding. As to the method: as §1, §2, §3

The target of assay [1] is T5, GST-tagged KRAS G12D (2-169) (Homo sapiens, UniProt P01116, G12D).
T5 construct: GST-tagged KRAS^G12D (2-169, Reaction Biology, MSC-11-539); purchased Reaction Biology MSC-11-539 (KRAS G12D); MSC-11-502 (SOS1cat)
T5 sequence (P01116 2-169 isoform P01116-2 G12D): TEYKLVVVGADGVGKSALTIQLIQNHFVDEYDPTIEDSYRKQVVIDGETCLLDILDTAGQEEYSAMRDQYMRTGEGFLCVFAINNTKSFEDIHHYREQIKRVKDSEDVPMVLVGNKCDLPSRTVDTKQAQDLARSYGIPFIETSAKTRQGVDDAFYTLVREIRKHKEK
As to the kind of experiment: Nucleotide exchange assay (NEA), HTRF of SOS-mediated GTP-DY-647P1 binding. Conditions: 5 nM GST-KRAS G12D, 20 nM SOScat, 150 nM GTP; compound 1 h at RT. Type of assay: biochemical. Put shortly:
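After 1 h RT preincubation of compound with KRAS, SOS1cat (20 nM final) and fluorescent GTP analog (150 nM) were added to 5 nM KRAS; HTRF (anti-GST Tb donor) followed at RT for up to 90 min. % inhibition relative to DMSO and no-SOS1 blank, 4-parameter curve fit.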

The subject of assay [2] is AGS (KRAS G12D) cells, phospho-ERK. As to the kind of experiment: pERK In Cell Western (ICW) assay (Method B). Type of assay: cell-based. As to conditions: Homo sapiens, 3 hours. The protocol: pERK ICW is a high throughput screening assay to evaluate the cellular potency of mutant KRAS small molecule inhibitors. KRAS mutant cell line AGS (KRAS^G12D) were purchased from ATCC and maintained in DMEM and RPMI medium supplemented with 10% fetal bovine serum and Penicillin/Streptomycin.
Cells grown in exponential phase were trypsinized, resuspended in fresh media, and viable cells were counted using a cell counter with Trypan Blue (BioRad TC20). Cells were seeded into 384-well plate (Greiner 781091) at density of 5,000 cells/well for AGS and allowed to grow overnight in a 37° C. CO2 incubator. The next day, compounds were dispensed into wells with a ½ log, 10-point serial dilution and top concentration of 10 μM using Tecan D300e dispenser and incubated for 3 hours in a 37° C. CO2 incubator. Cells were then fixed with paraformaldehyde (Electron Microscopy Sciences, 15710, 4% final concentration) for 30 min, permeabilized with wash buffer (1×PBS+0.1% Triton X-100) for 30 min and blocked with Odyssey blocking buffer (Li—COR 927-70001) for 1 hour, all at room temperature (RT). Phospho-ERK antibody (CST 4370L) was diluted 1:500 in Odyssey blocking+0.2% Tween 20 and incubated with cells overnight at 4° C. The next day, plates were washed 5× with wash buffer, incubated with IRDye 800 CW, Goat anti-Rabbit secondary antibody (Li—COR 926-32211, 1:500) and DRAQ5 (CST 4084L, 1:5,000) diluted in Odyssey blocking+0.2% Tween 20 for 1 hour, washed 5×, and imaged on an Odyssey CLx imaging system.
For data analysis, signal intensities from 800 (phosphor-ERK) and 700 (DRAQ5) channels were extracted, and phospho-ERK signals were normalized to DRAQ5 signals for each well and percent of DMSO control values were computed. Data were then imported into Graphpad Prism to compute half-maximal inhibitory concentrations (IC50) using a 4-parameter variable slope model. Z-factor for each plate was computed from signals derived from wells treated with either DMSO or 5 μM of Trametinib. AGS pERK ICW (Method B) IC50 (uM) values of selected compounds are depicted in Table 2 with compounds having a value 0.001 uM to 0.01 uM as ++++; >0.01 uM to 0.1 uM as +++; >0.1 uM to 1 uM as ++; 1 uM to 10 uM as + and >10 uM as NA.

SMILES strings stand for the structures.

T1 sequence (P01111 1-169): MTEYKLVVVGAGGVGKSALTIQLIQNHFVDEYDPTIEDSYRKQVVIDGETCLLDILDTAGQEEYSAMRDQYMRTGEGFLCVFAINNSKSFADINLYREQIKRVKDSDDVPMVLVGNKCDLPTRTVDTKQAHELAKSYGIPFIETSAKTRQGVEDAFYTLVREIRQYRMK
T4 sequence (P01116 1-169 isoform P01116-2): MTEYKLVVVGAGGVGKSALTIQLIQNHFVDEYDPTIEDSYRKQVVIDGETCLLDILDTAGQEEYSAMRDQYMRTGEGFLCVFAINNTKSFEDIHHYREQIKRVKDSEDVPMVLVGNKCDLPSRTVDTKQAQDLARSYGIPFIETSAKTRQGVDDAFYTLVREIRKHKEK

On to `C[C@@]1(O)CCCN(c2nc(OC[C@@]34CCCN3C[C@H](F)C4)nc3c2COC2(CCc4c(Cl)cccc42)C3)C1` (stereo partly drawn) [Compound 23, (3R)-1-(4-chloro-2′-(((2R,7aS)-2-fluorotetrahydro-1H-pyrrolizin-7a(5H)-yl)methoxy)-2,3,5′,8′-tetrahydrospiro[indene-1,7′-pyrano[4,3-d]pyrimidin]-4′-yl)-3-methylpiperidin-3-ol], for which the IC50 (as a rule, the midpoint of a concentration-inhibition curve) was greater than 100 µM on wtNRAS/RAF1; 10 to 100 µM against KRAS G12V/RAF1; 10 to 100 µM on KRAS G12D/RAF1; greater than 100 µM against wtKRAS/RAF1; 1 to 20 µM in assay [1].

On to `O=C1NC(=O)C2(CCCN(c3nc(OC[C@@]45CCCN4C[C@H](F)C5)nc4c3COC3(CCc5c(Cl)cccc53)C4)C2)N1` (stereo partly drawn) [Compound 24, 9-[4′-chloro-2-[[(2R,8S)-2-fluoro-1,2,3,5,6,7-hexahydropyrrolizin-8-yl]methoxy]spiro[5,8-dihydropyrano[4,3-d]pyrimidine-7,1′-indane]-4-yl]-1,3,9-triazaspiro[4.5]decane-2,4-dione], for which the IC50 was greater than 100 µM on wtNRAS/RAF1; 10 to 100 µM at KRAS G12V/RAF1; 10 to 100 µM against KRAS G12D/RAF1; 10 to 100 µM against wtKRAS/RAF1; 0.1 to 1 µM in assay [1].

With `CN1Cc2c(nc(OC[C@@]34CCCN3C[C@H](F)C4)nc2N2CCC[C@]3(C2)NC(=O)NC3=O)C[C@]12CCc1cccc(F)c12` [Compound 66, (5R)-9-[(7S)-7′-fluoro-2-[[(2R,8S)-2-fluoro-1,2,3,5,6,7-hexahydropyrrolizin-8-yl]methoxy]-6-methyl-spiro[5,8-dihydropyrido[4,3-d]pyrimidine-7,1′-indane]-4-yl]-1,3,9-triazaspiro[4.5]decane-2,4-dione], the 50% inhibitory concentration (IC50) in assay [2] was greater than 10 µM; in assay [1], 0.01 to 0.1 µM.

Consider `CN1Cc2c(nc(OC[C@@]34CCCN3C[C@H](F)C4)nc2N2CCC[C@]3(C2)NC(=O)NC3=O)C[C@]12CCc1c(F)ccc(F)c12` [Compound 67, (5R)-9-[(7S)-4′,7′-difluoro-2-[[(2R,8S)-2-fluoro-1,2,3,5,6,7-hexahydropyrrolizin-8-yl]methoxy]-6-methyl-spiro[5,8-dihydropyrido[4,3-d]pyrimidine-7,1′-indane]-4-yl]-1,3,9-triazaspiro[4.5]decane-2,4-dione], for which the values for the half-maximal inhibitory concentration (IC50) in assay [2] and in assay [1] were greater than 10 µM and 0.01 to 0.1 µM, respectively.

As to `CN1Cc2c(nc(OC[C@@]34CCCN3C[C@H](F)C4)nc2N2CCC[C@]3(C2)NC(=O)NC3=O)C[C@]12CCc1c(F)cccc12` [Compound 68, (5R)-9-[(7S)-4′-fluoro-2-[[(2R,8S)-2-fluoro-1,2,3,5,6,7-hexahydropyrrolizin-8-yl]methoxy]-6-methyl-spiro[5,8-dihydropyrido[4,3-d]pyrimidine-7,1′-indane]-4-yl]-1,3,9-triazaspiro[4.5]decane-2,4-dione], the IC50 in assay [2] was greater than 10 µM; in assay [1], 0.01 to 0.1 µM.

In the case of `CN1Cc2c(nc(OC[C@@]34CCCN3C[C@H](F)C4)nc2N2CCC[C@]3(C2)NC(=O)NC3=O)C[C@]12CCc1cccc(Cl)c12` [Compound 70, (5R)-9-[(7S)-7′-chloro-2-[[(2R,8S)-2-fluoro-1,2,3,5,6,7-hexahydropyrrolizin-8-yl]methoxy]-6-methyl-spiro[5,8-dihydropyrido[4,3-d]pyrimidine-7,1′-indane]-4-yl]-1,3,9-triazaspiro[4.5]decane-2,4-dione], the IC50 in assay [2] is 1 to 10 µM; in assay [1] it was 0.01 to 0.1 µM.
